Data taken from US20150094321A1, “COMBINATION” (GlaxoSmithKline LLC, priority 2009, published 2015).

What was measured:
Test in all cases: Cell line proliferation study
Type in all cases: cell-based, human
NCIH2030 = conditions: NCIH2030, lung; for IC50: Homo sapiens, NCI-H2030, 72 hours, read-out: gIC50
Experimental: (§1) In a separate study, combination drug tests with Compounds A and B were conducted using a panel of cell lines from human colon cancers (n=26), lung cancers (n=15) and pancreatic cancers (n=6). Cell lines were obtained from commercial vendors (ATCC and DSMZ). Cell lines were grown in RPMI-1640 supplemented with 2 mM glutamine, 1 mM sodium pyruvate and 10% fetal bovine serum (except for Capan-1 and HuP-T4 which were grown with 20% fetal bovine serum) and maintained at 37° C. and 5% CO2 in a humid incubator. Assays were performed in 384 well microtiter plates with optimum seeding densities for each cell line.
(§2) The test compounds were prepared as 10 mM stocks in 100% DMSO. Further dilutions of the compounds were made in DMSO. Compound A was diluted horizontally in a separate 96 well microtiter plate in rows D-G using a 3-fold dilution series for 10 dilution points. Compound B was similarly diluted horizontally in a 96 well microtiter plate in rows B-E using a 3-fold dilution series for 10 dilution points.
(§3) The two compounds were combined using equal volumes from each drug plate into cell culture media. […] Both Compound A and Compound B were individually titrated in rows B and C (for Compound B) and rows F and G (for Compound A) of the merged drug plate.
(§4) A 1:10 dilution of the drugs was performed in cell culture media prior to addition to the cells.
(§5) The final concentration range for the test compounds was 250 to 0.013 nM for Compound A and 1000 to […] for Compound B. The positive control consisted of culture media with DMSO at 0.1% and cells. The negative control consisted of culture media with DMSO at 0.1%. The cell lines were incubated at 37° C., 5% CO2 in humid air for 72 hours. Cell proliferation was measured using the CellTiter Glo (Promega) reagent according to the manufacturer's protocol. The plates are treated with CellTiter Glo solution and are analyzed for RLU (relative light units) using a Molecular Devices SpectraMax M5 plate reader.
(§6) The percent intensity values were used in model 205 of XLfit (IDBS, Inc.) in Microsoft Excel to calculate gIC50 values using a 4 parameter logistical fit. The midpoint of the growth window (the gIC50) falls half way between the number of cells at the time of compound addition (T=0) and the growth of control cells treated with DMSO at 72 hrs. The number of cells at time zero (T0) is divided from the intensity value at the bottom of the response curve (Ymin) to generate a measure for cell death (Ymin/T0). A value below 1 for Ymin/T0 indicates stronger potency to induce cell death with the treatment when compared to higher values.
(§7) 1. Excess over Highest Single Agent (EOHSA)—This was calculated as described above (Borisy et al, 2003; FDA 21 CFR 300.50) 2. Bliss synergy—A second criterion often used to determine combination synergy is evaluating the excess inhibition over Bliss independence or “additivity” (Bliss and Mexico, 1939). The model assumes a combined response of the two compounds independently using the following:
(§8) Where Ea is the effect (or percent inhibition) of Compound A and Eb is the effect of Compound B. The resulting effect of the combination of the two compounds is compared to their predicted additivity by Bliss and a synergy score is generated for each dose along the response curve. 3. Combination Index (CI)—A third criterion traditionally used for the evaluation of synergy is Combination Index (CI) derived from the Chou and Talalay (1984). The following equation is a model used for compounds that behave with different mechanisms of action (mutually non-exclusive formula). This was calculated as described above.
(§9) For EOHSA and Bliss Synergy measures, a score is generated for each dose along the response curve. These scores reflect the percentage over the highest agent (EOHSA) or percentage greater than Bliss additivity, depending on which metric is being interpreted. […]

MiaPaCa = conditions: for IC50: Homo sapiens, MIA PaCa-2, pancreas, 72 hours, read-out: gIC50; for Ymin/T0: pancreas
Experimental: as §1, §2, §3, §4, §5, §6, §7, §8, §9

NCIH1299 = conditions: NCIH1299, lung; for IC50: Homo sapiens, NCI-H1299, 72 hours, read-out: gIC50
Experimental: as §1, §2, §3, §4, §5, §6, §7, §8, §9

HCT8 = conditions: HCT8, colon; for IC50: Homo sapiens, HCT-8, 72 hours, read-out: gIC50
Experimental: as §1, §2, §3, §4, §5, §6, §7, §8, §9

NCIH1792 = conditions: NCIH1792, lung; for IC50: Homo sapiens, NCI-H1792, 72 hours, read-out: gIC50
Experimental: as §1, §2, §3, §4, §5, §6, §7, §8, §9

SW948 = conditions: SW948, colon; for IC50: Homo sapiens, 72 hours, read-out: gIC50
Experimental: as §1, §2, §3, §4, §5, §6, §7, §8, §9

SW837 = conditions: SW837, colon; for IC50: Homo sapiens, 72 hours, read-out: gIC50
Experimental: as §1, §2, §3, §4, §5, §6, §7, §8, §9

NCIH2122 = conditions: NCIH2122, lung; for IC50: Homo sapiens, NCI-H2122, 72 hours, read-out: gIC50
Experimental: as §1, §2, §3, §4, §5, §6, §7, §8, §9

LS1034 = conditions: LS1034, colon; for IC50: Homo sapiens, LS-1034, 72 hours, read-out: gIC50
Experimental: as §1, §2, §3, §4, §5, §6, §7, §8, §9

SW48 = conditions: SW48, colon; for IC50: Homo sapiens, 72 hours, read-out: gIC50
Experimental: as §1, §2, §3, §4, §5, §6, §7, §8, §9

HT29 = conditions: HT29, colon; for IC50: Homo sapiens, HT-29, 72 hours, read-out: gIC50
Experimental: as §1, §2, §3, §4, §5, §6, §7, §8, §9

SW403 = conditions: SW403, colon; for IC50: Homo sapiens, SW-403, 72 hours, read-out: gIC50
Experimental: as §1, §2, §3, §4, §5, §6, §7, §8, §9

NCIH1563 = conditions: NCIH1563, lung; for IC50: Homo sapiens, NCI-H1563, 72 hours, read-out: gIC50
Experimental: as §1, §2, §3, §4, §5, §6, §7, §8, §9

SW620 = conditions: SW620, colon; for IC50: Homo sapiens, SW-620, 72 hours, read-out: gIC50
Experimental: as §1, §2, §3, §4, §5, §6, §7, §8, §9

HPAFII = conditions: pancreas; for IC50: Homo sapiens, HPAF-II, 72 hours, read-out: gIC50
Experimental: as §1, §2, §3, §4, §5, §6, §7, §8, §9

Row | IC50 (MiaPaCa) | IC50 (HCT8) | IC50 (SW948) | IC50 (SW837) | IC50 (SW48) | Structure (SMILES) | IC50 (NCIH2030) | Ymin/T0 (NCIH2030) | Ymin/T0 (MiaPaCa) | IC50 (NCIH1299) | Ymin/T0 (NCIH1299) | Ymin/T0 (HCT8) | IC50 (NCIH1792) | Ymin/T0 (NCIH1792) | Ymin/T0 (SW948) | Ymin/T0 (SW837) | IC50 (NCIH2122) | Ymin/T0 (NCIH2122) | IC50 (LS1034) | Ymin/T0 (LS1034) | Ymin/T0 (SW48) | other results
1 | 23.5 nM | 18.3 nM | 185 nM | 153 nM | 8.16 nM | CC(=O)Nc1cccc(-n2c(=O)n(C3CC3)c(=O)c3c(Nc4ccc(I)cc4F)n(C)c(=O)c(C)c32)c1 [Compound A, N-{3-[3-cyclopropyl-5-(2-fluoro-4-iodo-phenylamino)-6,8-dimethyl-2,4,7-trioxo-3,4,6,7-tetrahydro-2H-pyrido[4,3-d]pyrimidin-1-yl]phenyl}acetamide] | > 250 nM | 55.8 | 25.0 | 24 nM | 45.9 | 16.70 | 42 nM | 2.8 | 27.87 | 25.58 | 30 nM | −11.8 | 37 nM | 2.87 | 13.02 | Ymin/T0 (HT29): 11.99; IC50 (HT29): 3.6 nM; IC50 (SW403): 4.6 nM; Ymin/T0 (SW403): 3.02; IC50 (NCIH1563): > 250 nM; Ymin/T0 (NCIH1563): 26.6; IC50 (SW620): 15.2 nM; Ymin/T0 (SW620): 15.46; IC50 (HPAFII): 15.9 nM; Ymin/T0 (HPAFII): −0.8
2 | > 1000 nM | 758 nM | 609 nM | > 1000 nM | 428 nM | Cn1ncc(Cl)c1-c1cc(C(=O)N[C@H](CN)Cc2ccc(F)c(F)c2)oc1Cl [Compound B, N-{(1S)-2-amino-1-[(3,4-difluorophenyl)methyl]ethyl}-5-chloro-4-(4-chloro-1-methyl-1H-pyrazol-5-yl)-2-furancarboxamide] | > 1000 nM | 40.7 | 0.7 | > 1000 nM | 58.1 | 20.44 | > 1000 nM | 26.0 | 20.46 | 63.88 | > 1000 nM | 11.4 | > 1000 nM | −0.67 | 11.68 | Ymin/T0 (HT29): 11.64; IC50 (HT29): 780 nM; IC50 (SW403): 74.3 nM; Ymin/T0 (SW403): 8.82; IC50 (NCIH1563): 65 nM; Ymin/T0 (NCIH1563): 27.6; IC50 (SW620): > 1000 nM; Ymin/T0 (SW620): 76.65; IC50 (HPAFII): > 1000 nM; Ymin/T0 (HPAFII): 31.2
